How the values were obtained:
Assay in all cases: relative viability (nuclei count vs DMSO), 5 days (fraction); higher = more cells survive
AZD1208 + Olaparib = compound: N[C@@H]1CCCN(c2c(/C=C3\SC(=O)NC3=O)cccc2-c2ccccc2)C1 [AZD1208] + O=C(c1cc(Cc2n[nH]c(=O)c3ccccc23)ccc1F)N1CCN(C(=O)C2CC2)CC1 [Olaparib] (partner 8 µM)
In short: (§1)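 Lung cancer cell lines in 1536-well plates were dosed by pin tool the day after seeding, either with one drug alone or with a fixed anchor-drug dose plus five library-drug doses (not always all listed) in √10 steps. After 5 days, cells were fixed and their nuclei stained in one step (final 0.05% Triton X-100, 1% formaldehyde, 1 ug/ml Hoechst), then counted on 4× images. Relative viability is the nuclei count in treated wells divided by that in vehicle wells. Values are medians of duplicate plates.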

AZD1208 + Pictilisib = compound: N[C@@H]1CCCN(c2c(/C=C3\SC(=O)NC3=O)cccc2-c2ccccc2)C1 [AZD1208] + CS(=O)(=O)N1CCN(Cc2cc3nc(-c4cccc5[nH]ncc45)nc(N4CCOCC4)c3s2)CC1 [Pictilisib] (partner 1 µM)
In short: as §1

XMD14-99 + Luminespib = compound: CN1CCN(CC1)C2=CC(=C(C=C2)NC3=NC(=C(S3)C(=O)C4=C(C=CC=C4Cl)Cl)N)OC [XMD14-99] + CCNC(=O)c1noc(-c2cc(C(C)C)c(O)cc2O)c1-c1ccc(CN2CCOCC2)cc1 [Luminespib] (partner 0.01 µM)
In short: as §1

XMD14-99 + Trametinib = compound: CN1CCN(CC1)C2=CC(=C(C=C2)NC3=NC(=C(S3)C(=O)C4=C(C=CC=C4Cl)Cl)N)OC [XMD14-99] + CC(=O)Nc1cccc(-n2c(=O)n(C3CC3)c(=O)c3c(Nc4ccc(I)cc4F)n(C)c(=O)c(C)c32)c1 [Trametinib] (partner 0.02 µM)
In short: as §1

Cell Line	relative viability (AZD1208 + Olaparib; first compound 0.08 µM)	relative viability (AZD1208 + Olaparib; first compound 0.253 µM)	relative viability (AZD1208 + Olaparib; first compound 0.8 µM)	relative viability (AZD1208 + Olaparib; first compound 2.53 µM)	relative viability (AZD1208 + Olaparib; first compound 8 µM)	relative viability (AZD1208 + Pictilisib; first compound 0.08 µM)	relative viability (AZD1208 + Pictilisib; first compound 0.253 µM)	relative viability (AZD1208 + Pictilisib; first compound 0.8 µM)	relative viability (AZD1208 + Pictilisib; first compound 2.53 µM)	relative viability (AZD1208 + Pictilisib; first compound 8 µM)	relative viability (XMD14-99 + Luminespib; first compound 0.08 µM)	relative viability (XMD14-99 + Luminespib; first compound 0.8 µM)	relative viability (XMD14-99 + Luminespib; first compound 2.53 µM)	relative viability (XMD14-99 + Luminespib; first compound 8 µM)	relative viability (XMD14-99 + Trametinib; first compound 0.08 µM)	relative viability (XMD14-99 + Trametinib; first compound 0.8 µM)	relative viability (XMD14-99 + Trametinib; first compound 2.53 µM)	relative viability (XMD14-99 + Trametinib; first compound 8 µM)
NCI-H1975	0.734	0.755	0.766	0.883	0.793	0.285	0.252	0.242	0.28	0.238	0.268	0.238	0.206	0.209	0.263	0.416	0.32	0.308
NCI-H1993	0.777	0.973	0.911	0.968	0.736	–	0.878	0.692	0.807	0.869	0.849	0.761	0.782	0.632	0.593	0.522	0.614	0.54
NCI-H2009	0.701	0.81	0.698	0.673	0.647	0.725	0.811	0.75	0.553	0.714	1.08	0.949	0.958	0.871	0.258	0.317	0.254	0.185
NCI-H2023	0.473	0.51	0.416	0.44	0.366	0.193	0.223	0.203	0.183	0.209	0.719	–	0.617	0.471	0.495	0.562	0.754	0.442
NCI-H2085	0.769	0.913	0.79	0.764	0.849	0.418	0.459	0.36	0.43	0.564	0.429	0.41	0.377	0.368	0.49	0.621	0.498	0.485
